Experimental data as given in patent publication US20250059182A1, “SOS1 INHIBITORS” (Mirati Therapeutics, Inc., priority 2021, published 2025).
Where a name gives a salt, the structure may show the parent alone. Read-outs that look alike come from different tables or passages of the source.

Key:
[1] = biological target: T1, recombinant human SOS1 polypeptide (amino acids 560-1049) (Homo sapiens, UniProt Q07889); assay: HTRF displacement assay: inhibition of labeled tracer binding to SOS1
T1 construct: corresponding to amino acids 560-1049, expressed in E. Coli; made in house; host or cells: E. coli
T1 sequence (Q07889 560-1049): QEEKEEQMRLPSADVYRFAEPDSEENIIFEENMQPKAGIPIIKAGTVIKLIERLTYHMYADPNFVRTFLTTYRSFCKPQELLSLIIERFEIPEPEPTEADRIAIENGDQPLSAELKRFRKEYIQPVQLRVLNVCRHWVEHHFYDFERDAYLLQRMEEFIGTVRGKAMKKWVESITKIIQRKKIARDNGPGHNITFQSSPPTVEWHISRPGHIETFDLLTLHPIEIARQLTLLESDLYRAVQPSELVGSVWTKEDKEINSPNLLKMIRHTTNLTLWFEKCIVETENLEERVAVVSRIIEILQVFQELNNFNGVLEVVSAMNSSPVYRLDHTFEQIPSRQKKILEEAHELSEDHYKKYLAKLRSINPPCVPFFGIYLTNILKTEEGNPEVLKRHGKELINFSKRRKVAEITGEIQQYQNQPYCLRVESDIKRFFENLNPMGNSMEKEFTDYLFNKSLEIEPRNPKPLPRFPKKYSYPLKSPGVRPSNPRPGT

[2] = tested on: pERK in MKN1 cells; assay: pERK inhibition, In-Cell Western (LI-COR Odyssey), MKN1 cells; type: cell-based; details: Homo sapiens
In short: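 IC50 was fitted from % pERK inhibition, calculated as the GAPDH-normalised pERK signal of each well divided by the vehicle mean. Signal was imaged at 700 and 800 nm after fixation, methanol permeabilisation and dual antibody staining. Before fixation, MKN1 cells had received compound for about 0.5–1 h at 37 °C, top concentration 10 µM, nine 3-fold dilutions.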

[3] = Table A, Morrison equation for competitive binding
[4] = MKN-1, Table B, MKN1 or H358 cells (table does not say which), 0.5-1 hour incubation, read-out: IC50 (nM), pERK inhibition
[5] = Table A1, Morrison equation for competitive binding
[6] = MKN-1, Table B1, MKN1 or H358 cells (table does not say which), 0.5-1 hour incubation, read-out: IC50 (nM), pERK inhibition

Row | Compound | Ki [1, 3] | IC50 [2, 4] | Ki [1, 5] | IC50 [2, 6] | IC50 ([2]; MKN-1, read-out: IC50 (nM), pERK inhibition)
1 | Cc1c(C#N)cccc1[C@@H](C)Nc1nnc(C)c2cc(C#N)c(N3CCN(C)CC3)cc12 [Example 6-19, (R)-1-((1-(3-cyano-2-methylphenyl)ethyl)amino)-4-methyl-7-(4-methylpiperazin-1-yl)phthalazine-6-carbonitrile] | 2.94 nM | 222 nM |  |  | 
2 | Cc1nnc(N[C@H](C)c2cccc(C(F)(F)F)c2F)c2cc(N3C[C@H]4C[C@@H]3CO4)c(C#N)cc12 [Example 6-20, 7-((1R,4R)-2-oxa-5-azabicyclo[2.2.1]heptan-5-yl)-1-(((R)-1-(2-fluoro-3-(trifluoromethyl)phenyl)ethyl)amino)-4-methylphthalazine-6-carbonitrile] | 1.4 nM | 218 nM |  |  | 
3 | Cc1c(C#N)cccc1[C@@H](C)Nc1nnc(C)c2cc(Cl)c(N3CCN(C)CC3)cc12 [Example 7-1, (R)-3-(1-((6-chloro-4-methyl-7-(4-methylpiperazin-1-yl)phthalazin-1-yl)amino)ethyl)-2-methylbenzonitrile] | 1.79 nM | 150 nM |  |  | 
4 | Cc1c(C#N)cccc1[C@@H](C)Nc1nnc(C)c2cnc(N3CCCCC3)cc12 [Example P-3, (R)-2-methyl-3-(1-((4-methyl-7-(piperidin-1-yl)pyrido[3,4-d]pyridazin-1-yl)amino)ethyl)benzonitrile] |  |  | 2.22 nM | 302 nM | 
5 | COC1(C)CCN(c2cc3c(N[C@H](C)c4cccc(C#N)c4C)nnc(C)c3cn2)CC1 [Example P-9, (R)-3-(1-((7-(4-methoxy-4-methylpiperidin-1-yl)-4-methylpyrido[3,4-d]pyridazin-1-yl)amino)ethyl)-2-methylbenzonitrile, formic acid salt] |  |  | 0.989 nM |  | 90.2 nM
6 | COC1CCN(c2cc3c(N[C@H](C)c4cccc(C#N)c4C)nnc(C)c3cn2)CC1 [Example P-15, (R)-3-(1-((7-(4-methoxypiperidin-1-yl)-4-methylpyrido[3,4-d]pyridazin-1-yl)amino)ethyl)-2-methylbenzonitrile] |  |  | 1.12 nM | 66.1 nM | 
7 | Cc1c(C#N)cccc1[C@@H](C)Nc1nnc(C)c2cnc(N3CCn4cnnc4C3)cc12 [Example P-21, (R)-3-(1-((7-(5,6-dihydro-[1,2,4]triazolo[4,3-a]pyrazin-7(8H)-yl)-4-methylpyrido[3,4-d]pyridazin-1-yl)amino)ethyl)-2-methylbenzonitrile] |  |  | 2.17 nM | 2560 nM | 
8 | Cc1c(C#N)cccc1[C@@H](C)Nc1nnc(C)c2cnc(N3CCn4c(C)nnc4C3)cc12 [Example P-27, (R)-2-methyl-3-(1-((4-methyl-7-(3-methyl-5,6-dihydro-[1,2,4]triazolo[4,3-a]pyrazin-7(8H)-yl)pyrido[3,4-d]pyridazin-1-yl)amino)ethyl)benzonitrile] |  |  | 1.26 nM | > 10000 nM | 
9 | Cc1c(C#N)cccc1[C@@H](C)Nc1nnc(C)c2cnc(N3CCn4c(nnc4C(F)(F)F)C3)cc12 [Example P-33, (R)-2-methyl-3-(1-((4-methyl-7-(3-(trifluoromethyl)-5,6-dihydro-[1,2,4]triazolo[4,3-a]pyrazin-7(8H)-yl)pyrido[3,4-d]pyridazin-1-yl)amino)ethyl)benzonitrile] |  |  | 6.92 nM | 121 nM | 
10 | Cc1c(C#N)cccc1[C@@H](C)Nc1nnc(C)c2cnc(N3CCc4c(cnn4C)C3)cc12 [Example P-39, (R)-2-methyl-3-(1-((4-methyl-7-(1-methyl-1,4,6,7-tetrahydro-5H-pyrazolo[4,3-c]pyridin-5-yl)pyrido[3,4-d]pyridazin-1-yl)amino)ethyl)benzonitrile] |  |  | 1.1 nM | 96.9 nM | 
11 | Cc1c(C#N)cccc1[C@@H](C)Nc1nnc(C)c2cnc(N3CCc4c(ncn4C)C3)cc12 [Example P-45, (R)-2-methyl-3-(1-((4-methyl-7-(1-methyl-1,4,6,7-tetrahydro-5H-imidazo[4,5-c]pyridin-5-yl)pyrido[3,4-d]pyridazin-1-yl)amino)ethyl)benzonitrile] |  |  | 0.777 nM | 176 nM | 
12 | Cc1c(C#N)cccc1[C@@H](C)Nc1nnc(C)c2cnc(N3CCc4ncn(C)c4C3)cc12 [Example P-57, (R)-2-methyl-3-(1-((4-methyl-7-(3-methyl-3,4,6,7-tetrahydro-5H-imidazo[4,5-c]pyridin-5-yl)pyrido[3,4-d]pyridazin-1-yl)amino)ethyl)benzonitrile] |  |  | 1.17 nM | 914 nM | 
13 | COC1(c2cc3c(N[C@H](C)c4cccc(C#N)c4C)nnc(C)c3cn2)CCN(C)CC1 [Example P-69, (R)-3-(1-((7-(4-methoxy-1-methylpiperidin-4-yl)-4-methylpyrido[3,4-d]pyridazin-1-yl)amino)ethyl)-2-methylbenzonitrile] |  |  | 51.8 nM | 849 nM | 
14 | COC1(c2cc3c(N[C@H](C)c4cccc(C#N)c4C)nnc(C)c3cn2)CCN(C(C)=O)CC1 [Example P-75, (R)-3-(1-((7-(1-acetyl-4-methoxypiperidin-4-yl)-4-methylpyrido[3,4-d]pyridazin-1-yl)amino)ethyl)-2-methylbenzonitrile] |  |  | 17.6 nM | 568 nM | 
15 | COC1(c2cc3c(N[C@H](C)c4cccc(C#N)c4C)nnc(C)c3cn2)CCOCC1 [Example P-81, (R)-3-(1-((7-(4-methoxytetrahydro-2H-pyran-4-yl)-4-methylpyrido[3,4-d]pyridazin-1-yl)amino)ethyl)-2-methylbenzonitrile] |  |  | 61.7 nM | 565 nM | 
16 | COC1(c2cc3c(N[C@H](C)c4cccc(C#N)c4C)nnc(C)c3cc2F)CCN(C)CC1 [Example P-153, (R)-3-(1-((6-fluoro-7-(4-methoxy-1-methylpiperidin-4-yl)-4-methylphthalazin-1-yl)amino)ethyl)-2-methylbenzonitrile] |  |  | 16.6 nM | 909 nM | 
17 | COC1(c2cc3c(N[C@H](C)c4cccc(C#N)c4C)nnc(C)c3cc2F)CCN(C(C)=O)CC1 [Example P-159, (R)-3-(1-((7-(1-acetyl-4-methoxypiperidin-4-yl)-6-fluoro-4-methylphthalazin-1-yl)amino)ethyl)-2-methylbenzonitrile] |  |  | 2.2 nM | 100 nM | 
18 | COC1(c2cc3c(N[C@H](C)c4cccc(C#N)c4C)nnc(C)c3cc2F)CCOCC1 [Example P-165, (R)-3-(1-((6-fluoro-7-(4-methoxytetrahydro-2H-pyran-4-yl)-4-methylphthalazin-1-yl)amino)ethyl)-2-methylbenzonitrile] |  |  | 4.66 nM | 352 nM | 
19 | Cc1nnc(N[C@H](C)c2cccc(C(C)(F)F)c2F)c2cc(N3CCOCC3)ncc12 [Example P-169, (R)-N-(1-(3-(1,1-difluoroethyl)-2-fluorophenyl)ethyl)-4-methyl-7-morpholinopyrido[3,4-d]pyridazin-1-amine] |  |  | 0.827 nM | 71.4 nM | 
20 | Cc1nnc(N[C@H](C)c2cccc(C(C)(F)F)c2F)c2cc(N(C)C)ncc12 [Example P-170, (R)-N1-(1-(3-(1,1-difluoroethyl)-2-fluorophenyl)ethyl)-N7,N7,4-trimethylpyrido[3,4-d]pyridazine-1,7-diamine] |  |  | 2.18 nM | 192 nM | 
21 | Cc1nnc(N[C@H](C)c2cccc(C(C)(F)F)c2F)c2cc(N3CCN4CCOC[C@@H]4C3)ncc12 [Example P-171, N-((R)-1-(3-(1,1-difluoroethyl)-2-fluorophenyl)ethyl)-7-((S)-hexahydropyrazino[2,1-c][1,4]oxazin-8(1H)-yl)-4-methylpyrido[3,4-d]pyridazin-1-amine] |  |  | 0.425 nM | 28.5 nM | 
22 | Cc1c(C#N)cccc1[C@@H](C)Nc1nnc(C)c2cc(F)c(-c3ccc(=O)n(C)c3)cc12 [Example P-172, (R)-3-(1-((6-fluoro-4-methyl-7-(1-methyl-6-oxo-1,6-dihydropyridin-3-yl)phthalazin-1-yl)amino)ethyl)-2-methylbenzonitrile] |  |  | 12.5 nM | 457 nM | 
23 | Cc1nnc(N[C@H](C)c2cccc(C(C)(F)F)c2F)c2cc(-c3ccc(=O)n(C)c3)c(F)cc12 [Example P-173, (R)-5-(4-((1-(3-(1,1-difluoroethyl)-2-fluorophenyl)ethyl)amino)-7-fluoro-1-methylphthalazin-6-yl)-1-methylpyridin-2(1H)-one] |  |  | 8.31 nM | 573 nM | 
24 | Cc1c(C#N)cccc1[C@@H](C)Nc1nnc(C)c2cnc(-c3ccc(=O)n(C)c3)cc12 [Example P-174, (R)-2-methyl-3-(1-((4-methyl-7-(1-methyl-6-oxo-1,6-dihydropyridin-3-yl)pyrido[3,4-d]pyridazin-1-yl)amino)ethyl)benzonitrile] |  |  | 43.5 nM | 1330 nM | 
25 | Cc1nnc(N[C@H](C)c2cccc(C(C)(F)F)c2F)c2cc(-c3ccc(=O)n(C)c3)ncc12 [Example P-175, (R)-5-(1-((1-(3-(1,1-difluoroethyl)-2-fluorophenyl)ethyl)amino)-4-methylpyrido[3,4-d]pyridazin-7-yl)-1-methylpyridin-2(1H)-one] |  |  | 15.4 nM | 415 nM | 
